Paper PMC3914206

Tests used:
Format in all cases: binding
Parameters in all cases: KINOMEscan: ABL1(F317L)-phosphorylated / KINOMEscan: ABL1(H396P)-nonphosphorylated / KINOMEscan: ABL1(H396P)-phosphorylated / KINOMEscan: ABL1(M351T)-phosphorylated / KINOMEscan: ABL1(T315I)-phosphorylated / KINOMEscan: ABL1-nonphosphorylated / KINOMEscan: ABL1-phosphorylated / KINOMEscan: ACVR2A / KINOMEscan: ACVR2B / KINOMEscan: ADCK3 / KINOMEscan: ADCK4 / KINOMEscan: AKT1 / KINOMEscan: AKT3 / KINOMEscan: ALK / KINOMEscan: ARK5 / KINOMEscan: AURKA / KINOMEscan: AURKC / KINOMEscan: BIKE / KINOMEscan: BMPR1A / KINOMEscan: BMPR1B / KINOMEscan: BMX / KINOMEscan: BRK / KINOMEscan: BRSK1 / KINOMEscan: BRSK2 / KINOMEscan: CAMK1 / KINOMEscan: CAMK1D / KINOMEscan: CAMK1G / KINOMEscan: CAMK2A / KINOMEscan: CAMK2B / KINOMEscan: AAK1 / KINOMEscan: CAMK2D / KINOMEscan: CAMK2G / KINOMEscan: ABL1(F317I)-nonphosphorylated / KINOMEscan: ABL1(F317I)-phosphorylated / KINOMEscan: ABL1(F317L)-nonphosphorylated: unit: % Ctrl
Conditions in all cases: Compound Concentration 10 µM
panel of 442 kinases [1] = biological target: T1, panel of 442 kinases (Homo sapiens, UniProt Q9UM73)
T1 construct: purchased KINOMEscan
Text: (§1) We assessed the selectivity of members of this scaffold using the KINOMEscan methodology across a near comprehensive panel of 442 kinases [[18,27]].

panel of 442 kinases [2] = biological target: T2, panel of 442 kinases (Homo sapiens, UniProt P36894)
T2 construct: purchased KINOMEscan
Text: as §1

panel of 442 kinases [3] = biological target: T3, panel of 442 kinases (Homo sapiens, UniProt Q15831)
T3 construct: purchased KINOMEscan
T3 sequence (Q15831 1-433): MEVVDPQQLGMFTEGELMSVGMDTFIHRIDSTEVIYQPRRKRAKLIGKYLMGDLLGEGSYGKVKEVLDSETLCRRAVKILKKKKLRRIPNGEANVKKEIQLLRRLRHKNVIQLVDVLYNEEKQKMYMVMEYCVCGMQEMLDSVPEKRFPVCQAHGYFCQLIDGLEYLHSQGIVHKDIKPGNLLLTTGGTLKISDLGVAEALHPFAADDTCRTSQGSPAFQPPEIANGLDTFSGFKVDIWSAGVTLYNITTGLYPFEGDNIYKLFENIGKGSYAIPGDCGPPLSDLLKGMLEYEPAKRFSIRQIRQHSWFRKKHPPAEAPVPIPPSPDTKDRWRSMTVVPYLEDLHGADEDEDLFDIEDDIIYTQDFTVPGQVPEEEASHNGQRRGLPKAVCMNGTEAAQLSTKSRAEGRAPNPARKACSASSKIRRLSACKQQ
Text: as §1

T2 sequence (P36894 24-532): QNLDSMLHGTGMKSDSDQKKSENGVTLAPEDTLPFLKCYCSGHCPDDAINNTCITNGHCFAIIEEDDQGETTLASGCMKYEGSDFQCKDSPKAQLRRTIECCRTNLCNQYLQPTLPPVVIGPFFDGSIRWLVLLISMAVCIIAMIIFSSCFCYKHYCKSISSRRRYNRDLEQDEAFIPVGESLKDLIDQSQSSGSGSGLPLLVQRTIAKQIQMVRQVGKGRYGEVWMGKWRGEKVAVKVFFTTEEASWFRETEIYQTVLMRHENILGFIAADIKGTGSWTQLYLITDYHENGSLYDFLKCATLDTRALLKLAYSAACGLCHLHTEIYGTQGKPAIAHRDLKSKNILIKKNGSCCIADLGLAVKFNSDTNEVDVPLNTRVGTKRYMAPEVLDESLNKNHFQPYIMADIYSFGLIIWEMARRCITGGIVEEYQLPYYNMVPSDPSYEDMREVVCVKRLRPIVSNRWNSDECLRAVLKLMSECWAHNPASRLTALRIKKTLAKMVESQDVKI
T1 sequence (Q9UM73 19-1620): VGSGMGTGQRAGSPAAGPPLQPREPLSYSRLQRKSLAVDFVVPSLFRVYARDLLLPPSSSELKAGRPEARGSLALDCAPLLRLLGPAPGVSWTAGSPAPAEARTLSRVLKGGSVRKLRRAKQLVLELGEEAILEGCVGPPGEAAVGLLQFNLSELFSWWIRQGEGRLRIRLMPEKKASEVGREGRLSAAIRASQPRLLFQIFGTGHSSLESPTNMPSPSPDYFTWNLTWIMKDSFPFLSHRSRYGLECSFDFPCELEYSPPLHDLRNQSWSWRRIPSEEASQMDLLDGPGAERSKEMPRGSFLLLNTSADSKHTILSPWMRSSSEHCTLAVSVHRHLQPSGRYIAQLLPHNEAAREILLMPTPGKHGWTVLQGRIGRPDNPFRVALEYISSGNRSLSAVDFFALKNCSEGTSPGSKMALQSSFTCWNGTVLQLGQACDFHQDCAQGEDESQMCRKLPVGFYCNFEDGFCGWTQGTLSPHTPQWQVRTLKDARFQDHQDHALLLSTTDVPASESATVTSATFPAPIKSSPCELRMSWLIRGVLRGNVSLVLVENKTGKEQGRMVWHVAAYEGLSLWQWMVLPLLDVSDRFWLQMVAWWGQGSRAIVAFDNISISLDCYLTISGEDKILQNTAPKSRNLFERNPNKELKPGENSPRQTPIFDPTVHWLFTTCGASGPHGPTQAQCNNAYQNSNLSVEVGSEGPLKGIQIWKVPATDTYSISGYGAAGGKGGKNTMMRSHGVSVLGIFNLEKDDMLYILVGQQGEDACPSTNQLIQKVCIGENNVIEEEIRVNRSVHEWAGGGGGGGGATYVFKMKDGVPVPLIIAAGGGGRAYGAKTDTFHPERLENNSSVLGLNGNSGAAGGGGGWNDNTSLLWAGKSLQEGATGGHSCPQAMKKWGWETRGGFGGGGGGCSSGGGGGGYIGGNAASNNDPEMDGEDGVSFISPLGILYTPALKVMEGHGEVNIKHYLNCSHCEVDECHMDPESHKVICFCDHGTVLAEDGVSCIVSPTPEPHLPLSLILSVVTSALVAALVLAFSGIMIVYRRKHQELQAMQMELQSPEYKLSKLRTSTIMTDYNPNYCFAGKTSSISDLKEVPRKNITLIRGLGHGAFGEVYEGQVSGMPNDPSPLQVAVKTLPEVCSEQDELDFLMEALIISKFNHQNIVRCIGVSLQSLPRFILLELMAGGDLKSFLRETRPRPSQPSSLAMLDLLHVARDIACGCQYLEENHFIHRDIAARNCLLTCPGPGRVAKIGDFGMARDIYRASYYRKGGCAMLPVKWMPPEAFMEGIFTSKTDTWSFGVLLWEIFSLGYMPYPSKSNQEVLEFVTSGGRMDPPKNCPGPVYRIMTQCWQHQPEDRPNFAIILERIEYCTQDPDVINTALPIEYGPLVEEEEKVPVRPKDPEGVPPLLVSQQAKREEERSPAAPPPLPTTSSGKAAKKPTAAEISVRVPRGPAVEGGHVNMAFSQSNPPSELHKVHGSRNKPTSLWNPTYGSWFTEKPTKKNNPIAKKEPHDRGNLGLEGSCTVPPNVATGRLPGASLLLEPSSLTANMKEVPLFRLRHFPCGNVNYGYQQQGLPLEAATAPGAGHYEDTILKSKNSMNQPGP

Row | Compound | KINOMEscan: ALK (panel of 442 kinases [1]) | KINOMEscan: BMPR1A (panel of 442 kinases [2]) | KINOMEscan: LKB1 (panel of 442 kinases [3])
1 | CCOc1cc(C(=O)N2CCC(N3CCN(C)CC3)CC2)ccc1Nc1ncc2c(n1)N(C1CCCC1)c1ccccc1C(=O)N2C [Compound 26] | 21 | 100 | 100
2 | COc1cc(C(=O)N2CCC(N3CCN(C)CC3)CC2)ccc1Nc1ncc2c(n1)N(C1CCCC1)c1ccccc1C(=O)N2C [Compound 25, 11-cyclopentyl-2-((2-methoxy-4-(4-(4-methylpiperazin-1-yl)piperidine-1-carbonyl)phenyl)amino)-5-methyl-5H-benzo[e]pyrimido[5,4-b][1,4]diazepin-6(11H)-one] | 15 | 96 | 82
3 | COc1cc(C(=O)N2CCC(N3CCN(C)CC3)CC2)ccc1Nc1ncc2c(n1)N1CCc3cccc(c31)C(=O)N2C [Compound 24] | 31 | 67 | 
4 | COc1cc(C(=O)N2CCC(N3CCN(C)CC3)CC2)ccc1Nc1ncc2c(n1)N(C)c1ccccc1C(=O)N2C [15 (LRRK2-IN-1)] | 13 | 100 | 96
